Laboratory results: patent US20100254914A1, “NANOWORMS FOR IN VIVO TUMOR TARGETING” (THE REGENTS OF THE UNIVERSITY OF CALIFORNIA, priority 2009, published 2010)
Values belong to the molecule of their own block, whether it stands above or below them. Bridge positions count the residues as written; N and C are the ends. Ends that are not written are not given here.

Experiments:
[1] = Hydrodynamic size by dynamic light scattering; format: physicochemical; conditions: Table 1
Description: The nanostructure appears as linearly aggregated IO cores with a mean hydrodynamic size (in the long dimension) of 65 nm (FIG. 1a and Table 2). When a higher molecular mass dextran (40 kDa) was used branched IO cores were obtained, with a larger average size (˜100 nm) and a broader size distribution (FIG. 5). […] NW show a slightly larger saturation magnetization value (74.2 emu/gFe vs. 61.5 emu/gFe and 53.5 emu/gFe) and a higher MR contrast (R2=116 mMFe^−1S^−1 vs R2=70 mMFe^−1S^−1 and R2=95 mMFe^−1S^−1) than NS and Feridex (FIG. 1b). […]
Blood half-life and biodistribution. To quantify the in vivo circulation times of NW or NS samples in Nude BALB/c mice (n=3-4 for each formulation), heparinized capillary tubes (Fisher) were used to draw 15 μL (for fluorescence) or 70 μl (for magnetization) of blood from the periorbital plexus at different times after intravenous injection of the NW or NS samples (1, 3, or 10 mg Fe/kg body mass). […] For Cy7-labeled NW or NS formulations, blood extracted at different times was imaged in a 96-well plate in Cy7 channel (762 nm excitation/800 nm emission) with a NIR fluorescence scanner (LI-COR biosciences, NE, USA). The images were analyzed using the ImageJ (NIH) or Osirix (Apple) programs. […] Organs and blood were immediately weighed, freeze-dried in gelatin capsules, and then analyzed for magnetization using SQUID.

MDA-MB-435 tumors [2] = test: In vivo tumor homing, MDA-MB-435 xenograft; design: species or system Nude BALB/c mice; conditions: for tumor uptake / targeting efficiency: 24 hrs post-injection
Procedure: (§1) In vivo tumor homing. MDA-MB-435 human breast carcinoma cells or HT1080 human fibrosarcoma cells (1×10^6) were injected into the mammary fat pad or subcutaneously injected into Nude BALB/c mice, respectively. Tumors were used when they reached ˜0.5 cm in size. Some 0.2 cm or 1 cm tumors were used to compare the dependence of tumor size on NW homing. Cy7-labed or non-labeled NW or NS were intravenously injected into mice (n=3˜8 for each formulation) with a dose of 1 mg Fe/kg body mass (for fluorescence studies) and 3 mg Fe/kg body mass (for magnetization studies). For real-time observation of tumor/liver uptake, animals were imaged under anesthesia in Cy7 channel using the BonSai fluorescence-imaging system (Siemens, Pa., USA) 6 hrs, 24 hrs or 48 hrs after injection. For NIR fluorescence imaging of organs, animals were sacrificed 24 hrs after the injection by cardiac perfusion with PBS under anesthesia, and organs were dissected and imaged in Cy7 channel with a NIR fluorescence scanner (LI-COR biosciences, NE, USA). All the NIR images for animals or organs were taken at the same exposure time. To quantify the amount of NW or NS homing, collected tumors were weighed, freeze-dried in gelatin capsules, and then analyzed for magnetization using SQUID. For histologic analysis, frozen sections of tumors were prepared. The sections were fixed with 4% paraformaldehyde and stained with DAPI for observation of NW or NS only. The rat anti-mouse CD-31 (1:50, BD PharMingen) and biotinylated mouse fibrin(ogen) antiserum (1:50, Nordic) were used for immunochemicostaining of tumor tissue sections. The corresponding secondary antibodies were added and incubated for 1 hour at room temperature: AlexaFluor-594 goat anti-rat or rabbit IgG (1:1,000; Molecular Probes), streptavidin Alexa Fluor 594 (1:1000; Molecular Probes). The slides were washed three times with PBS and mounted in Vectashield Mounting Medium with DAPI. At least three images from representative microscopic fields were analyzed for each tumor sample.

HT1080 tumors = test: In vivo tumor homing, HT1080 xenograft; design: species or system Nude BALB/c mice
Procedure: as §1, with “For histologic analysis, frozen sections of tumors were prepared. The sections were fixed with 4% paraformaldehyde and stained with DAPI for observation of NW or NS only. The rat anti-mouse CD-31 (1:50, BD PharMingen) and biotinylated mouse fibrin(ogen) antiserum (1:50, Nordic) were used for immunochemicostaining of tumor tissue sections. The corresponding secondary antibodies were added and incubated for 1 hour at room temperature: AlexaFluor-594 goat anti-rat or rabbit IgG (1:1,000; Molecular Probes), streptavidin Alexa Fluor 594 (1:1000; Molecular Probes). The slides were washed three times with PBS and mounted in Vectashield Mounting Medium with DAPI.” left out

MDA-MB-435 cells = test: In vitro cellular fluorescence imaging with heating, MDA-MB-435; format: cell-based, human; conditions: 20 min at 45° C. vs 37° C., then 2 hr at 37° C.
Procedure: (§2) In vitro cellular fluorescence imaging. The cells were treated with 80 ug Fe/mL of Cy5.5 labeled control NWs or LyP1NWs per well for 20 min at 37° C. or 45° C. in the presence of 10% FBS and incubated for an additional 2 hr at 37° C. in the presence of 10% FBS. The cells were then rinsed three times with cell medium, fixed, stained, and imaged by fluorescence microscopy.

C8161 cells = test: In vitro cellular fluorescence imaging with heating, C8161; format: cell-based; conditions: 20 min at 45° C. vs 37° C., then 2 hr at 37° C.
Procedure: as §2

MDA-MB-435 tumors [3] = test: In vivo temperature-induced tumor targeting of magnetic nanoworms, MDA-MB-435; design: species or system mice; conditions: 45° C. for 30 min, 24 hrs post-injection
Procedure: In vivo temperature-induced tumor targeting of magnetic nanoworms. Mice bearing bilateral MDA-MB-435 human carcinoma tumors were intravenously injected with Cy7-labeled LyP1NWs or NWs and one flank of the mouse (containing one of the tumors) was immediately heated at 45° C. for 30 min in a temperature-controlled water bath. At 24 hrs post-injection, the tissues were harvested and the Cy7 fluorescence in tissues were imaged using NIR fluorescence imaging system (LI-COR Odyssey).

C8161 tumors = test: In vivo temperature-induced tumor targeting of magnetic nanoworms, C8161; design: species or system mice; conditions: heated relative to unheated tumors
p32 or gC1qR receptor = biological target: T1, p32 or gC1qR receptor (human, UniProt Q07021 74-282); test: fluorescence microscopy of MDA-MB-435 cells, colocalization with anti-p32 stain
T1 construct: whole, on cells; Endogenous p32 on MDA-MB-435 cells and tumors, stained with an anti-p32 antibody; also called p32 receptors
T1 sequence (looked up): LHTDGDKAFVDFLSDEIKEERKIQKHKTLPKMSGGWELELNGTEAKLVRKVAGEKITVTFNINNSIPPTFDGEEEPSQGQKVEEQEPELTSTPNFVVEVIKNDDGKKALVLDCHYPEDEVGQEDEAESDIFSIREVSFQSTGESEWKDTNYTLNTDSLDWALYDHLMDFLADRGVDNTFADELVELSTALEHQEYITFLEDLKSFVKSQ

[4] = compared with the other samples

Molecule: NW-P175-C: NW with 175 amines to which CREKA is conjugated through a PEG spacer, 60 peptides (not fully specified; also: CREKA conjugated through PEG spacer to nanoworm with 175 amines, 60 peptides (attachment site not given here))
Size [nm] (mean hydrodynamic size) [1]: 85.0 nm
tumor uptake / targeting efficiency (MDA-MB-435 tumors [2]): significantly higher levels of uptake
tumor uptake / targeting efficiency (MDA-MB-435 tumors [2]; listed as NW-P-175-C): best
tumor:liver ratio (NIR fluorescence) (MDA-MB-435 tumors [2]; [4]): significant increases
tumor uptake / targeting efficiency (HT1080 tumors; 24 hrs post-injection): best
tumor:liver ratio (NIR fluorescence) (HT1080 tumors; [4]): significant increases

Molecule: NW-P-C: PEGylated CREKA-conjugated NW (family; ~60 CREKA peptides in the comparison) (not fully specified; also: CREKA conjugated via PEG to nanoworms (attachment site not given here))
tumor uptake / targeting efficiency (MDA-MB-435 tumors [2]): significantly greater

Molecule: LyP1NWs: LyP-1 peptide attached to Cy5.5-labeled aminated NWs via PEG crosslinker, ~40 peptides per nanoworm (CGNKRTRGC; disulfide 1-9 (inferred); not fully specified; printed as Cys-Gly-Asn-Lys-Arg-Thr-Arg-Gly-Cys; also: extra Cys added for conjugation, position not given here)
binding and internalization upon heating (MDA-MB-435 cells): Significant quantities
binding and internalization upon heating (C8161 cells): lower heat-mediated internalization
targeting to heated tumors (MDA-MB-435 tumors [3]): prominent relative to unheated tumors
homing to heated tumors (C8161 tumors): not significantly different

binding result (p32 or gC1qR receptor): binds
B1: LyP-1 peptide-conjugated magnetic nanoworms (LyP1NWs) (peptide)
peptide: CGNKRTRGC
modifications: disulfide 1-9 (inferred); not fully specified; printed as Cys-Gly-Asn-Lys-Arg-Thr-Arg-Gly-Cys; also: peptide is cyclic, conjugated via PEG crosslinker to Cy5.5-labeled dextran iron oxide nanoworm, extra Cys added for conjugation, position not given here
notes: also called Lyp1-conjugated Cy5.5-labeled magnetic nanoworms; LyP1-conjugated NWs
